From US11407725B2 (The Board of Trustees of the University of Illinois, priority 2018, dated 2022)
“And” between values parts separate entries of the source, which are not always exact repeats. Identical values can stand only once. “Also recorded” adds a separate entry of the source.

Key:
[1] = Photophysical properties (absorbance, emission, extinction coefficient, quantum yield); assay type: physicochemical; conditions: for λabs: maximum absorbance
K562 cells = test: Trypan blue cytotoxicity / viability assay; assay type: cell-based; conditions: K562 cells; 6, 12 and 24 hours
Protocol: K562 cells were plated in a 96-well plate with 50,000 cells per well. Each well was filled to a final volume of 100 μL IMDM media with 0.25% DMSO. Wells were tested using red-AlDeSense or Ctrl-red-AlDeSense (1 μM and 5 μM each) or using a DMSO control. After 6-, 12-, and 24-hour incubation periods at 37° C. and 5% CO2, a 10 μL sample was removed from each condition and combined with 10 μL 0.4% w/v trypan blue in PBS. Samples were incubated for 3 minutes at room temperature before being loaded on a hemocytometer where live and dead cells were counted. Conditions were tested in triplicate for each time point. Samples were analyzed on an EVOS digital inverted microscope using transmitted white light for brightfield imaging and the Cy5 filter cube for trypan blue visualization.
K562 cells were plated in a 96-well plate at a density of 500,000 cells/mL in full IMDM media supplemented with either 1 μM or […] AlDeSense AM. Equivalent samples were supplemented with 1 μM or […] as a vehicle control. At 6, 12, and 24 hours, a 10 μL sample was removed from each of the samples and mixed 1:1 with a 0.4% wt/volume trypan blue solution in PBS. Samples were incubated for 1 minute at room temperature before being loaded onto a hemocytometer where live and dead cells were counted. Each sample was made in triplicate for each time point.

[2] = Response to reactive species, biological thiols and amines (chemostability)
Protocol: (e) Response of AlDeSense to various reactive oxygen species, biological thiols, and amines at concentrations of 100 μM (GSH was tested at 1 mM). For all assays, AlDeSense was used at 1 μM final concentration.
All assays were performed in 50 mM triethanolamine buffer red-AlDeSense was used at 2 μM. Enzyme concentrations affording 1 nmol substrate/minute were used. Reactive species were tested at 100 μM, except glutathione which was at 1 mM.

ALDH1A1 [3] = target: T1, ALDH1A1 (Homo sapiens, UniProt P00352); test: ALDH isoform selectivity of red probes: ALDH1A1; assay type: biochemical
T1 construct: made in house
T1 sequence (P00352 1-501): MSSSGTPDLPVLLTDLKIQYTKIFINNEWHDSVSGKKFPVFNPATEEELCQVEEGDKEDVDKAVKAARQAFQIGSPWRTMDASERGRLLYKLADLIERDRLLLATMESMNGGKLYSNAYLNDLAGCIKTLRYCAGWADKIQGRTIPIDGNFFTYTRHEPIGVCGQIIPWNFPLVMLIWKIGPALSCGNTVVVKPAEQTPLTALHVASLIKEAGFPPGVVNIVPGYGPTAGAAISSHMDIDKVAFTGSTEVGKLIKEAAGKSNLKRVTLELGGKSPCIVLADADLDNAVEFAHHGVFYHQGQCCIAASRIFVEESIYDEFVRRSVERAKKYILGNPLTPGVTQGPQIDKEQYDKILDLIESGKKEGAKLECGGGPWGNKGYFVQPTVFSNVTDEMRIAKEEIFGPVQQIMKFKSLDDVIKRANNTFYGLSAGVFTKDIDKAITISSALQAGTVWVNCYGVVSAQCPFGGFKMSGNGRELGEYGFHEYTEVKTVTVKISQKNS
Protocol: Each ALDH isoform was added to a 50 mM triethanolamine solution (pH 7.4) containing 2.0 mM NAD^+ and 100 μM substrate at room temperature. Benzaldehyde was the substrate for ALDH3A1. Propanal was the substrate for all other isoforms. ALDH isoform activity was determined by monitoring the rate of NADH production through the increase in absorbance at 340 nm (ε=6220 M^−1cm^−1). For these assays, 1 unit is defined as the amount of enzyme that catalyzes the conversion of […] per minute. For every combination of dye and enzyme, 2 μM dye was preincubated with 2.0 mM NAD^+ in 50 mM triethanolamine solution (pH 7.4). The reaction was initiated by addition of 1 unit of ALDH. Dyes were excited at 590 nm, and fluorescence was measured continuously at 610 nm.

ALDH1A1 [4] = target: T1, ALDH1A1; test: Fluorescence turn-on of AlDeSense with recombinant ALDH1A1; assay type: biochemical; conditions: fluorescent enhancement when treated with ALDH1A1; 1 μM probe
Protocol: Activation of AlDeSense was assessed using 20 units of each ALDH isoform. Activity was determined by activity measurements using each isoform's preferred substrate (1 unit=1 μmol substrate turned over/mol enzyme/min). Further details are in the supplementary information. All enzymatic reactions were performed in 50 mM triethanolamine buffer (pH 7.4, Thermo Fisher) with 2.5 mM NAD+(Alfa Aesar) and 5% v/v DMSO (Thermo Fisher) in a 1 mL quartz cuvette at room temperature.
AlDeSense activation was determined using fluorescence. Immediately before measurement, AlDeSense (1 μM) was added to a quartz cuvette. After vigorous mixing, the reaction was monitored at room temperature for 15 min. Fluorescence spectra were acquired according to following parameters: λex=498 nm, and emission range=505-580 nm. All scans were normalized to the signal from AlDeSense in 50 mM TEA and 2.5 mM NAD+(without enzyme). Endpoint measurements at 15 min were performed in triplicate and reported as the averages±standard deviation.

[5] = tested on: panel of the most common ALDH isoforms; test: AlDeSense isoform selectivity assay; assay type: biochemical, human; conditions: 20 units of each isoform, 1 μM AlDeSense
Protocol: The activity of each isoform of ALDH was confirmed by monitoring the production of NADH at 340 nm when incubated with the most commonly used substrate for that enzyme (propionaldehyde for ALDH1A1, ALDH1A2, ALDH1A3, ALDH2 and ALDH4A1; benzaldehyde for ALDH3A1, and succinic semialdehyde for ALDH5A1). Each isoform was diluted with 50 mM triethanolamine (TEA, pH 7.4) to a final concentration of 1 μM and placed in a 1 mL quartz cuvette. Directly before measurement, NAD^+ was added to final concentration of 2.5 mM and the preferred substrate was added to a final concentration of 1 mM. Absorbance spectra were taken from 300 to 500 nm every half minute for 15 minutes. Units of activity for each enzyme were calculated from the slope of absorbance increase at 340 nm over time, (1 unit=1 μmol substrate turned over/[…]/min).
Activation of AlDeSense was assessed using 20 units of each ALDH isoform. Activity was determined by activity measurements using each isoform's preferred substrate (1 unit=1 μmol substrate turned over/mol enzyme/min). Further details are in the supplementary information. […]
AlDeSense activation was determined using fluorescence. […] After vigorous mixing, the reaction was monitored at room temperature for 15 min. Fluorescence spectra were acquired according to following parameters: λex=498 nm, and emission range=505-580 nm. […]

B16F0 melanoma cells = test: B16F0 melanoma confocal imaging (e-CSC vs non-CSC); assay type: cell-based, murine
Protocol: B16F0 Melanoma Confocal Imaging. B16F0 murine melanoma cells were cultured for 5 days on polyacrylamide hydrogels with or without spiral patterns as described previously (Drug Discov Today 2014, 19, 1953). The coverslips on which the hydrogels and cells were mounted were transferred to a glass-bottomed dish for confocal imaging, leaving the cells intact. Solutions of either 2 μM AlDeSense AM or 2 μM Ctrl-AlDeSense AM in PBS were added to the two types of cells. The cells were incubated at room temperature for 1 h and then immediately imaged. Confocal imaging was performed on a Zeiss LSM700 Confocal Microscope, utilizing the 488 nm laser line to excite AlDeSense AM and the 20×/0.8 objective. Three different coverslips of cells were imaged for each set of conditions and at least 6 μmages were taken for each coverslip. Using ImageJ, ROIs were drawn around areas covered with cells and mean fluorescence values were measured for each image.

SMILES | bathochromic shift in absorbance and emission compared to AlDeSense [1] | maximum emission (λem) [1] | Quantum Yield ([1]; Probes 1-8) | λabs [1] | toxicity in cell viability assay (K562 cells) | chemostability across reactive oxygen, nitrogen and sulfur species ([2]; species 100 μM, glutathione 1 mM, 2 μM red-AlDeSense) | turn-on response when treated with ALDH1A1 (ALDH1A1 [3]) | Enzyme Activity 1A1 (ALDH1A1 [3]; Table 2) | Enzymatic Turn On (ALDH1A1 [3]; Table 2, ALDH1A1, 2 μM dye) | ε [1] | λcm ([1]; Table 1) | ΔE00 ([1]; at 503 nm, intersecting wavelength of normalized absorbance and emission) | ΦF ([1]; prior to activation) | Turn-on (fold) (ALDH1A1 [4]) | cross-reactivity against panel of ALDH isoforms [5] | response to thiols and amines ([2]; 100 μM (GSH 1 mM), 1 μM AlDeSense) | response to panel of reactive oxygen species ([2]; 100 μM species, 1 μM AlDeSense) | brightness of e-CSCs versus e-CSCs treated with Ctrl-AlDeSense (B16F0 melanoma cells) | brightness of e-CSCs versus non-CSCs (B16F0 melanoma cells; both stained with AlDeSense)
Cc1cc(C=O)c(F)c(F)c1C1=C2C=CC(=O)C=C2[Si](C)(C)c2cc(O)ccc21 | 100 nm | 614 nm | 0.21 | 594 nm | nontoxic | only ALDH1A1 elicited turnover | 3.2 fold | High | 3.2 | – | – | – | – | – | – | – | – | – | –
Cc1cc(C=O)ccc1-c1c2cc(F)c(=O)cc-2oc2cc(O)c(F)cc12 [AlDeSense] | – | – | – | 496 nm | non-toxic | – | – | – | – | 61000 M⁻¹ cm⁻¹ | 516 nm | 2.46 eV | 0.04 and 0.041 | 20 fold and 20.0 fold | only ALDH1A1 led to probe activation; also recorded: did not observe cross-reactivity; also recorded: selective for only the ALDH1A1 isoform | did not detect formation of fluorescent hemithioacetal and Schiff base products | did not observe any oxidized fluorescent products | 9.0 fold | 11.3 fold
